Measured values published in PMC5943930, “Identification of Inhibitors Targeting Ferredoxin-NADP^+ Reductase from the Xanthomonas citri subsp. citri Phytopathogenic Bacteria” (Molecules : A Journal of Synthetic Chemistry and Natural …, 2017).
Read-outs that look alike come from different tables or passages of the source.

Target: T1, XccFPR (Xanthomonas citri pv. citri, UniProt A0AAI7ZED9)
T1 sequence (A0AAI7ZED9 1-259): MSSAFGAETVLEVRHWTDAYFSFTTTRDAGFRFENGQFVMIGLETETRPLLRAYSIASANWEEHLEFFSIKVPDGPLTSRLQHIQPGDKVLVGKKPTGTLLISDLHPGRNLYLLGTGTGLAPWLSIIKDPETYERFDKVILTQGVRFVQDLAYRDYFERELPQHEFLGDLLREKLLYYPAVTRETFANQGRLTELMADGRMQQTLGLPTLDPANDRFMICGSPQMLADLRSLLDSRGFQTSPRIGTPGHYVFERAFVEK
Assay: NADPH-dependent DCPIP diaphorase activity of XccFPR, dose-response of inhibitors
Assay type: biochemical, Xanthomonas citri subsp. citri
Method: When assayed in regular cuvettes, the DCPIP diaphorase activity of XccFPR was determined at 25 °C using a Cary 100 (Agilent Technologies Inc., Santa Clara, CA, USA) spectrophotometer as previously established. […] Positive controls (without any hit compound) were included in every reaction set. […] The DMSO concentration was kept at 2% in all samples. All kinetic experiments were performed in triplicate. The effect of the inhibitors on Km and kcat was determined by fitting the datasets to the Michaelis-Menten model. Additionally, data were globally fit to either Lineweaver-Burk equations for uncompetitive or non-competitive inhibition, yielding Ki for each compound (Equations (1) and (2), respectively).

[1] = 25 °C, 50 mM Tris/HCl, 2% DMSO, pH 8.0, 20 nM XccFPR, 95 µM DCPIP, 50 μM NADPH
[2] = 25 °C, 50 mM Tris/HCl, 2% DMSO, pH 8.0, 20 nM XccFPR, 95 µM DCPIP, 50 μM NADPH, compound 0–800 μM
[3] = 25 °C, 2% DMSO, pH 8.0, 20 nM XccFPR, 95 µM DCPIP, 50 μM NADPH

Compound | ICmax (concentration causing maximal inhibition) [1] [µM] | IC50 [2] [µM] | % Inhibition at ICmax [3] | % Inhibition at ICmax (25 °C, 2% DMSO, pH 8.0, 20 nM XccFPR, 95 µM DCPIP, 50 μM NADPH, listed as 2) [%] | IC50 [µM]
O=c1c2ccccc2[se]n1-c1ccccc1 [C2, 2-Phenyl-1,2-benzoselenazol-3-one(ebselen), reference compound] | 300 ± 1 | 27 ± 1 | over 90% | 95 ± 3 | 
O=[N+]([O-])c1ccc(Oc2c(Cl)cccc2Cl)cc1 [C4, 1,3-dichloro-2-(4-nitrophenoxy)benzene] |  |  | 86 ± 1% |  | 36 ± 1
O=C(CSc1nc2cc(Cl)ccc2o1)Nc1cc(C(F)(F)F)cc(C(F)(F)F)c1 [C5, N-[3,5-bis(trifluoromethyl)phenyl]-2-[(5-chloro-1,3-benzoxazol-2-yl)sulfanyl]acetamide] |  |  |  |  | 46 ± 1
CC(C)N(C(=O)c1ccc(-c2ccccc2F)cc1)C(C)C [C6, 4-(2-fluorophenyl)-N,N-bis(propan-2-yl)benzamide] |  |  | ~70% |  | > 605
C#CC1(NC(=O)NCCCCCCNC(=O)NC2(C#C)CCCCC2)CCCCC1 [C7, 3-(1-ethynylcyclohexyl)-1-(6-{[(1-ethynylcyclohexyl)carbamoyl]amino}hexyl) urea] |  |  | 97 ± 7% |  | 85 ± 16
Clc1ccc2sc(SCc3ccccc3)nc2c1 [C8, 2-(benzylsulfanyl)-5-chloro-1,3-benzothiazole] |  |  | 88 ± 9% |  | 79 ± 1
Cc1oc(C(=O)NNC(=O)Nc2cccc(C(F)(F)F)c2)nc1-c1ccccc1 [C9, 5-methyl-4-phenyl-N-({[3-(trifluoromethyl)phenyl]carbamoyl}amino)-1,3-oxazole-2-carboxamide] |  |  | 60 ± 4% |  | 147 ± 1
Nc1c(Cl)cc(C(=O)Nc2cc(Cl)c(Cl)cc2Cl)cc1Cl [C10, 4-amino-3,5-dichloro-N-(2,4,5-trichlorophenyl)benzamide] |  |  | 57 ± 7% |  | 98 ± 1
COc1cc(C2SCCS2)cc([N+](=O)[O-])c1OS(=O)(=O)c1cc(Cl)ccc1Cl [C11, 4-(1,3-dithiolan-2-yl)-2-methoxy-6-nitrophenyl 2,5-dichlorobenzene-1-sulfonate] |  |  | 92 ± 5% |  | 78 ± 1
N#CC(NCc1ccccc1)c1ccc(Cl)c(Cl)c1 (stereo not shown) [C13, 2-(benzylamino)-2-(3,4-dichlorophenyl)acetonitrile] |  |  | 80 ± 3% |  | 95 ± 1
CCOC(=O)c1c(C)c(C#N)c(NC(=O)c2ccccc2)n1-c1ccccc1 [C14, ethyl 5-benzamido-4-cyano-3-methyl-1-phenyl-1H-pyrrole-2-carboxylate] |  |  | 85 ± 4% |  | 127 ± 1
O=C(CCn1c(=O)oc2ccccc21)Sc1ccc(Cl)cc1Cl [C15, 3-{3-[(2,4-dichlorophenyl)sulfanyl]-3-oxopropyl}-2,3-dihydro-1,3-benzoxazol-2-one] |  |  |  |  | 30 ± 1
COc1ccc(C(C)=O)cc1CO/N=C1\CSCc2ccccc21 [C16, 1-{3-[({[(4Z)-3,4-dihydro-1H-2-benzothiopyran-4-ylidene]amino}oxy)methyl]-4-methoxyphenyl}ethan-1-one] |  |  | 79 ± 6% |  | 58 ± 1
Cn1cc(Br)c(/C=N/Nc2ccc(Cl)cc2Cl)n1 [C17, 4-bromo-3-[(1E)-[2-(2,4-dichlorophenyl)hydrazin-1-ylidene]methyl]-1-methyl-1H-pyrazole] |  |  |  |  | 27 ± 2
Nc1ccccc1Sc1cc(C(F)(F)F)cc([N+](=O)[O-])c1Sc1ccccc1N [C18, 2-({2-[(2-aminophenyl)sulfanyl]-6-nitro-4-(trifluoromethyl)phenyl}sulfanyl)aniline] |  |  |  |  | 24 ± 1
Cc1nc(-c2cc(C#N)c(SCCNS(=O)(=O)c3cccc(C(F)(F)F)c3)nc2C)cs1 [C19, N-(2-{[3-cyano-6-methyl-5-(2-methyl-1,3-thiazol-4-yl)pyridin-2-yl]sulfanyl}ethyl)-3-(trifluoromethyl)benzene-1-sulfonamide] |  |  |  |  | 17 ± 1
Cc1cc(C)c2cc(C(=O)Nc3ccc4c(c3)OCO4)[nH]c2c1 [C20, N-(2H-1,3-benzodioxol-5-yl)-4,6-dimethyl-1H-indole-2-carboxamide] |  |  | 100 ± 1% |  | 53 ± 2
CCOC(=O)C1=C(C)NC(C)=C(C(=O)OCC)C1c1ccc(-c2cc(C(F)(F)F)ccc2Cl)o1 [C21, 3,5-diethyl 4-{5-[2-chloro-5-(trifluoromethyl)phenyl]furan-2-yl}-2,6-dimethyl-1,4-dihydropyridine-3,5-dicarboxylate] |  |  | 62 ± 7% |  | 14 ± 1
O=C1/C(=C/c2cccs2)CCC/C1=C\c1cccs1 [C22, (2E,6E)-2,6-bis[(thiophen-2-yl)methylidene]cyclohexan-1-one] |  |  | 100 ± 4% |  | 58 ± 2

Compound | ICmax (concentration causing maximal inhibition) [1] [µM] | IC50 [2] [µM] | % Inhibition at ICmax [3] | % Inhibition at ICmax (25 °C, 2% DMSO, pH 8.0, 20 nM XccFPR, 95 µM DCPIP, 50 μM NADPH, listed as 2) [%] | IC50 [µM]
N#CC(C#N)=C1SC=C(c2ccc(Cl)cc2)S1 [C23, 2-[4-(4-chlorophenyl)-2H-1,3-dithiol-2-ylidene]propanedinitrile] |  |  | 73 ± 3% |  | > 604
Cc1ccc(C)c(CSc2nc(C3CCCCC3)c(C#N)c(=O)[nH]2)c1 [C24, 4-cyclohexyl-2-{[(2,5-dimethylphenyl)methyl]sulfanyl}-6-oxo-1,6-dihydropyrimidine-5-carbonitrile] |  |  | 43 ± 4% |  | 35 ± 1
O=C(O/N=C/Nc1ncc(-c2ccc(Br)s2)s1)c1ccc([N+](=O)[O-])cc1 [C25, (E)-({[5-(5-bromothiophen-2-yl)-1,3-thiazol-2-yl]amino}methylidene)amino 4-nitrobenzoate] |  |  | ~91% |  | 91 ± 1
COC(=O)c1sccc1NC(=O)Cc1cccs1 [C26, methyl 3-[2-(thiophen-2-yl)acetamido]thiophene-2-carboxylate] |  |  |  |  | 33 ± 2
CC(C)S(=O)(=O)c1c(SCC#N)sc(C#N)c1N [C27, 3-amino-5-[(cyanomethyl)sulfanyl]-4-(propane-2-sulfonyl)thiophene-2-carbonitrile] |  |  | 92 ± 3% |  | 89 ± 1
CCCCc1ccc(NC(=O)CSc2nc(C3CCCCC3)c(C#N)c(=O)[nH]2)c(C)c1 [C28, N-(4-butyl-2-methylphenyl)-2-[(5-cyano-4-cyclohexyl-6-oxo-1,6-dihydropyrimidin-2-yl)sulfanyl]acetamide] |  |  | 81 ± 2% |  | > 652
O=C(Nc1ccccc1-c1nc(-c2ccc(Cl)cc2)no1)C(F)(F)F [C29, N-{2-[3-(4-chlorophenyl)-1,2,4-oxadiazol-5-yl]phenyl}-2,2,2-trifluoroacetamide] |  |  | 27 ± 2% |  | 11 ± 2
O=C(O)c1c2c(nc3ccccc13)CSc1ccc(Cl)cc1-2 [C30, 2-chloro-6H-5-thia-7-azatetraphene-12-carboxylic acid] |  |  |  |  | 29 ± 1
Brc1csc(C2SCCS2)c1 [C31, 2-(4-bromothiophen-2-yl)-1,3-dithiolane] |  |  | 85 ± 1% |  | 90 ± 1
Cc1ccc2oc(=O)n(CCC(=O)NNC(=O)c3nc(-c4cccs4)no3)c2c1 [C32, 3-(5-methyl-2-oxo-2,3-dihydro-1,3-benzoxazol-3-yl)-N'-[3-(thiophen-2-yl)-1,2,4-oxadiazole-5-carbonyl]propanehydrazide] |  |  | ~56% |  | > 2720
CCOC(=O)CNC(=O)CCc1cc(OC)c(OC)c(OC)c1 [C33, ethyl 2-[3-(3,4,5-trimethoxyphenyl)propanamido]acetate] |  |  | ~53% |  | > 1920
N#CC1=C(N)OC2=C(COc3ccc(F)cc32)C1c1ccc(Cl)cc1 (stereo not shown) [C34, 2-amino-4-(4-chlorophenyl)-9-fluoro-4H,5H-pyrano[3,2-c]chromene-3-carbonitrile] |  |  | ~87% |  | 210 ± 1
O=C(COC(=O)c1cccc(I)c1)c1ccccc1 [C35, 2-oxo-2-phenylethyl 3-iodobenzoate] |  |  | 100 ± 1% |  | 63 ± 1
O=C(Nc1cccc(Cl)c1)Nc1ccccc1NS(=O)(=O)c1cccs1 [D1, 3-(3-chlorophenyl)-1-[2-(thiophene-2-sulfonamido)phenyl]urea] |  |  | 98 ± 1% |  | 76 ± 1
O=C(Nc1cccc(Cl)c1)Nc1ccc(F)c(Cl)c1 [D3, 1-(3-Chloro-4-fluoro-phenyl)-3-(3-chloro-phenyl)-urea] |  |  |  |  | > 5000
CSc1sc(NC(=O)N2CCOCC2)c(-c2ccc(Cl)cc2)c1C#N [D4, N-[3-(4-chlorophenyl)-4-cyano-5-(methylsulfanyl)thiophen-2-yl]morpholine-4-carboxamide] |  |  | 78 ± 2% |  | 113 ± 1
CSc1sc(C(=O)O)c(-c2cccc(Cl)c2)c1C#N [D6, 3-(3-chlorophenyl)-4-cyano-5-(methylsulfanyl)thiophene-2-carboxylic acid] |  |  |  |  | > 1500
Cc1cccc(C)c1NC(=O)Nc1cccs1 [D7, 1-(2,6-dimethylphenyl)-3-thiophen-2-ylurea] |  |  | 84 ± 1% |  | 151 ± 1
benzalkonium chloride [C3, reference compound] | 300 ± 3 | 190 ± 1 | 31 ± 8% |  | 
